Results reported in ChEMBL document CHEMBL5465560, “Selectivity Literature for EUbOPEN Chemogenomic Library” (2024).
Each block holds one compound with its values, some of them ahead of it.

Experiments:
[1] = biological target: T1, SNF-related serine/threonine-protein kinase (Homo sapiens) (UniProt Q9NRH2); test: Selectivity interaction (KinomeScan (DiscoverX)) EUB0001079a SNRK; conditions: at 1 µM
T1 sequence (whole entry): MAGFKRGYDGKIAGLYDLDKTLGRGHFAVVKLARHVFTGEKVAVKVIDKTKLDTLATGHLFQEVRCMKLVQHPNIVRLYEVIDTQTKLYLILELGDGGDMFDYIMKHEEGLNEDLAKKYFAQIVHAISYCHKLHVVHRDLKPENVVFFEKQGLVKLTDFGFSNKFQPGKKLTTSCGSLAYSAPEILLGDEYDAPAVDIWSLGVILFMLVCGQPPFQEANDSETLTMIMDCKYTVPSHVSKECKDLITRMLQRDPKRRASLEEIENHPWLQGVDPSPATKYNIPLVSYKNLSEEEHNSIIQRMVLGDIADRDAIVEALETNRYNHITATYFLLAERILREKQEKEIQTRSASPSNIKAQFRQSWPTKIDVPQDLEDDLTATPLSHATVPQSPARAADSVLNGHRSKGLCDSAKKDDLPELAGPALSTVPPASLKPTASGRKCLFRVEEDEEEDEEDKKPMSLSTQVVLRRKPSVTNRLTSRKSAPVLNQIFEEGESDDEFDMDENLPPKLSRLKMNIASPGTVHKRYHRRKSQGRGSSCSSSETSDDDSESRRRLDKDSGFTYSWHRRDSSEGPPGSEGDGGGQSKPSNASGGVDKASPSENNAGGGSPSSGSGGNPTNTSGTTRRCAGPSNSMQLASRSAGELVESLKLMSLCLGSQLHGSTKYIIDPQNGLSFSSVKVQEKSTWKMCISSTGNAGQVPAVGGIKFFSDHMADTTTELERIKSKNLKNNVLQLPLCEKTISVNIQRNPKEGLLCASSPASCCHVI

[2] = biological target: Serine/threonine-protein kinase N1 (Homo sapiens, UniProt Q16512); test: Selectivity interaction (SelectScreen profiling (Invitrogen)) EUB0000607a PKN1; conditions: at 2 µM
[3] = biological target: T2, Aurora kinase C (Homo sapiens) (UniProt Q9UQB9); test: Selectivity interaction (KinomeScan (DiscoverX)) EUB0001619a AURKC; conditions: at 1 µM
T2 sequence (whole entry): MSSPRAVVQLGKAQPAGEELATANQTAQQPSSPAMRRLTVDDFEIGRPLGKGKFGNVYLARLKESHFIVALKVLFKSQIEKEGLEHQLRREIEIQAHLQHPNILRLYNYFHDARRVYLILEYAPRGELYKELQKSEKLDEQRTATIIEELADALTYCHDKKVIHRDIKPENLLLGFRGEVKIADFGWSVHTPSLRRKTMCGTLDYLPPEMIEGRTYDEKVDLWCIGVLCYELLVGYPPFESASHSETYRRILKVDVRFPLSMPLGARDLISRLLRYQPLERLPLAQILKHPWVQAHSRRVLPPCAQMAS

[4] = biological target: Ribosomal protein S6 kinase alpha-3 (Homo sapiens, UniProt P51812); test: Selectivity interaction (KinomeScan (DiscoverX)) EUB0000595a RPS6KA3; conditions: at 10 µM
[5] = system: Epidermal growth factor receptor (Homo sapiens), P00533 [L858R,T790M]; test: (§1) Selectivity interaction (ProQinase) EUB0000171b EGFR
[6] = system: Epidermal growth factor receptor (Homo sapiens), P00533 [L861Q]; test: as §1
[7] = system: Epidermal growth factor receptor (Homo sapiens), P00533 [G719C]; test: as §1
[8] = system: Epidermal growth factor receptor (Homo sapiens), P00533 [L858R]; test: as §1
[9] = system: Epidermal growth factor receptor (Homo sapiens), P00533 [UNDEFINED MUTATION]; test: as §1
[10] = system: Epidermal growth factor receptor (Homo sapiens), P00533 [T790M]; test: as §1
[11] = biological target: Epidermal growth factor receptor (Homo sapiens, UniProt P00533); test: as §1
[12] = system: Epidermal growth factor receptor (Homo sapiens), P00533 [G719S]; test: as §1
[13] = biological target: T3, Serine/threonine-protein kinase Nek1 (Homo sapiens) (UniProt Q96PY6); test: Selectivity interaction (KinomeScan (DiscoverX)) EUB0000666a NEK1; conditions: at 10 µM
T3 sequence (whole entry): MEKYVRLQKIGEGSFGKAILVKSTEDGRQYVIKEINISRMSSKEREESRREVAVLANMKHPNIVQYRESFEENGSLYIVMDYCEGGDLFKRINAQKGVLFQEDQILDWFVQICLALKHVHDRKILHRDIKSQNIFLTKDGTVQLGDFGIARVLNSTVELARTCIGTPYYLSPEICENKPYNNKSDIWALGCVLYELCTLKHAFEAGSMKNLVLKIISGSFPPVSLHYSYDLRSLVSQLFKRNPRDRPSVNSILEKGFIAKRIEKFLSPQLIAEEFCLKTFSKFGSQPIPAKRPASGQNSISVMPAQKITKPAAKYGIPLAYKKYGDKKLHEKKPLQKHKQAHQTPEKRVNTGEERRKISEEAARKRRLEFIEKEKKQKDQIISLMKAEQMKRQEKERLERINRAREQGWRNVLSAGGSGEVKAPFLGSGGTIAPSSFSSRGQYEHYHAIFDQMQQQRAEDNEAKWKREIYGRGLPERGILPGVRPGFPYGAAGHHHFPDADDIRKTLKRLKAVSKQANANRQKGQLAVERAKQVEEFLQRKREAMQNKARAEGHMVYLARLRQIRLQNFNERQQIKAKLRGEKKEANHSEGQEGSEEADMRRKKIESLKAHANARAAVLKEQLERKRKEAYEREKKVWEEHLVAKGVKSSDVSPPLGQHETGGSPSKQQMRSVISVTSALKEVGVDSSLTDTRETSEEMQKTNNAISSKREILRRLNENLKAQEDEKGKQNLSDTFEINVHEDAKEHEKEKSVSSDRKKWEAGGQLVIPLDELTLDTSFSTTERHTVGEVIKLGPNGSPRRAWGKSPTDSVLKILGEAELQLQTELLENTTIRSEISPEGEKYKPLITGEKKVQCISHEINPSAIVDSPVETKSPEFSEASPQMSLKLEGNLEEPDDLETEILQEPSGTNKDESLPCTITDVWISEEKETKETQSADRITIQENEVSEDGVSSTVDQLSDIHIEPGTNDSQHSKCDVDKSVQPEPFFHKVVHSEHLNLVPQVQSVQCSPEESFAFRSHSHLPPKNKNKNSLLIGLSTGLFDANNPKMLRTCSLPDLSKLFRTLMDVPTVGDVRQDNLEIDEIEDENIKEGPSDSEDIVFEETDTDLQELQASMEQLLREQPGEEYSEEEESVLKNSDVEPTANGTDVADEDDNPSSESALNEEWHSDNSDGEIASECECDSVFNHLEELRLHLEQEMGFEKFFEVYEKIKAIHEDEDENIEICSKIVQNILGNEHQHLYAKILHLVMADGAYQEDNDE

Epidermal growth factor receptor (Homo sapiens), P00533 [L861Q], sequence (P00533 whole entry L861Q): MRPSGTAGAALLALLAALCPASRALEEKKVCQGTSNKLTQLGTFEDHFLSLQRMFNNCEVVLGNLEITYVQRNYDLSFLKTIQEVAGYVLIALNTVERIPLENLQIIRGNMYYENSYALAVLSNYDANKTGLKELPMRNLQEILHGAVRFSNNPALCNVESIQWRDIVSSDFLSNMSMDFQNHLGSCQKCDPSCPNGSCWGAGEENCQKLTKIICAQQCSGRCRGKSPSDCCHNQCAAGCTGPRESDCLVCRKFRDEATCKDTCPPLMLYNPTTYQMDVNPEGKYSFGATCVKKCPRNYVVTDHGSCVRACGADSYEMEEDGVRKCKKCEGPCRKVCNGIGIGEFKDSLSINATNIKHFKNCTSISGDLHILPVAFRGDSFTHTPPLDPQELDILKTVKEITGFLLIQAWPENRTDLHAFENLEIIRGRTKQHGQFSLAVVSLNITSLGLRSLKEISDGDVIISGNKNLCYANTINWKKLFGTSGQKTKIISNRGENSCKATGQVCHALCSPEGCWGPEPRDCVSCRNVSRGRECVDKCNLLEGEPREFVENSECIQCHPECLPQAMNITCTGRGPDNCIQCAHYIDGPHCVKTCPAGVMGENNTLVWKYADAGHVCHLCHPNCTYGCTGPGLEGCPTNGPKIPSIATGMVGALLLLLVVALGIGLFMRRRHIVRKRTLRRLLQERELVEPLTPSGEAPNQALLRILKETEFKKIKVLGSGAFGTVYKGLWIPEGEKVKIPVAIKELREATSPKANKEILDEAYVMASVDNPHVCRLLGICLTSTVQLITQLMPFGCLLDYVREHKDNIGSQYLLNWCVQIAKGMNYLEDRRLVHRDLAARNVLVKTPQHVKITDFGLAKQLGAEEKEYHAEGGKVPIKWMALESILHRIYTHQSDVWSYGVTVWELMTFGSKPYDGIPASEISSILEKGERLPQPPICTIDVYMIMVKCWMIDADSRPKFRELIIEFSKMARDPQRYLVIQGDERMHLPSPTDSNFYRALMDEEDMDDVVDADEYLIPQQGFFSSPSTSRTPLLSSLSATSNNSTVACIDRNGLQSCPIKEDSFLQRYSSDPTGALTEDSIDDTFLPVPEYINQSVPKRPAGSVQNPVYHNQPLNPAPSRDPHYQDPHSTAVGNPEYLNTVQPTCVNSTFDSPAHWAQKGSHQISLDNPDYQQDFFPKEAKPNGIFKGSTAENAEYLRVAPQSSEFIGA
Epidermal growth factor receptor (Homo sapiens), P00533 [L858R,T790M], sequence (P00533 whole entry T790M/L858R, looked up): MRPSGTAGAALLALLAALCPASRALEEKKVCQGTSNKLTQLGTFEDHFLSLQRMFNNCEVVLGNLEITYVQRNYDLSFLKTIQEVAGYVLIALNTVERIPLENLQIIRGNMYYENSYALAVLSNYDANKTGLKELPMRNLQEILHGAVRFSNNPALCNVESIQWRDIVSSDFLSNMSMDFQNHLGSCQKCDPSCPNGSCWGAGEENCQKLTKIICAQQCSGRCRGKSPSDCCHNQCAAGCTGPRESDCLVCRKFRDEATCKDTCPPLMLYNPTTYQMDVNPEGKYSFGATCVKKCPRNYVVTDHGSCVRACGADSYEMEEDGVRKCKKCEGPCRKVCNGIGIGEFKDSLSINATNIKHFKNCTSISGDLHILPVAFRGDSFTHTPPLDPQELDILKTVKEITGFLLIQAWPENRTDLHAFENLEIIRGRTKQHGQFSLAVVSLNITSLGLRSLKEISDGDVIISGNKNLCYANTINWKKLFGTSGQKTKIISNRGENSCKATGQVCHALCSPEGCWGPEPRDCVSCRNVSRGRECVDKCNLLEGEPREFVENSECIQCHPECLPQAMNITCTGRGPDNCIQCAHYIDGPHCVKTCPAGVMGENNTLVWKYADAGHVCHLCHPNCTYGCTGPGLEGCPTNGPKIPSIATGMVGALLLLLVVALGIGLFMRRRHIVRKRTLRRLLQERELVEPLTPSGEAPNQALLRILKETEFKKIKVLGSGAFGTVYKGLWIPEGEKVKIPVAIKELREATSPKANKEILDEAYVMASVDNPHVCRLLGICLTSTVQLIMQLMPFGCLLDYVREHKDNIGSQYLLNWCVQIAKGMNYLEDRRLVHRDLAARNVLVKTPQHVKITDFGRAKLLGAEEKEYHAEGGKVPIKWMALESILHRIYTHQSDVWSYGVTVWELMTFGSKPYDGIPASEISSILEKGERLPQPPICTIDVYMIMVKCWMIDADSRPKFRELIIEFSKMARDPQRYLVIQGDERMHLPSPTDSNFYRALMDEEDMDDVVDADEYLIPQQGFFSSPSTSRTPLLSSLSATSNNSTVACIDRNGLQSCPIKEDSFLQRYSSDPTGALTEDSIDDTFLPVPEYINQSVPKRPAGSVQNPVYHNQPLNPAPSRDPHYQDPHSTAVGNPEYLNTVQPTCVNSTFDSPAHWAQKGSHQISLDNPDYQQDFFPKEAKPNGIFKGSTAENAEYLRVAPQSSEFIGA
Epidermal growth factor receptor (Homo sapiens), P00533 [G719S], sequence (P00533 whole entry G719S): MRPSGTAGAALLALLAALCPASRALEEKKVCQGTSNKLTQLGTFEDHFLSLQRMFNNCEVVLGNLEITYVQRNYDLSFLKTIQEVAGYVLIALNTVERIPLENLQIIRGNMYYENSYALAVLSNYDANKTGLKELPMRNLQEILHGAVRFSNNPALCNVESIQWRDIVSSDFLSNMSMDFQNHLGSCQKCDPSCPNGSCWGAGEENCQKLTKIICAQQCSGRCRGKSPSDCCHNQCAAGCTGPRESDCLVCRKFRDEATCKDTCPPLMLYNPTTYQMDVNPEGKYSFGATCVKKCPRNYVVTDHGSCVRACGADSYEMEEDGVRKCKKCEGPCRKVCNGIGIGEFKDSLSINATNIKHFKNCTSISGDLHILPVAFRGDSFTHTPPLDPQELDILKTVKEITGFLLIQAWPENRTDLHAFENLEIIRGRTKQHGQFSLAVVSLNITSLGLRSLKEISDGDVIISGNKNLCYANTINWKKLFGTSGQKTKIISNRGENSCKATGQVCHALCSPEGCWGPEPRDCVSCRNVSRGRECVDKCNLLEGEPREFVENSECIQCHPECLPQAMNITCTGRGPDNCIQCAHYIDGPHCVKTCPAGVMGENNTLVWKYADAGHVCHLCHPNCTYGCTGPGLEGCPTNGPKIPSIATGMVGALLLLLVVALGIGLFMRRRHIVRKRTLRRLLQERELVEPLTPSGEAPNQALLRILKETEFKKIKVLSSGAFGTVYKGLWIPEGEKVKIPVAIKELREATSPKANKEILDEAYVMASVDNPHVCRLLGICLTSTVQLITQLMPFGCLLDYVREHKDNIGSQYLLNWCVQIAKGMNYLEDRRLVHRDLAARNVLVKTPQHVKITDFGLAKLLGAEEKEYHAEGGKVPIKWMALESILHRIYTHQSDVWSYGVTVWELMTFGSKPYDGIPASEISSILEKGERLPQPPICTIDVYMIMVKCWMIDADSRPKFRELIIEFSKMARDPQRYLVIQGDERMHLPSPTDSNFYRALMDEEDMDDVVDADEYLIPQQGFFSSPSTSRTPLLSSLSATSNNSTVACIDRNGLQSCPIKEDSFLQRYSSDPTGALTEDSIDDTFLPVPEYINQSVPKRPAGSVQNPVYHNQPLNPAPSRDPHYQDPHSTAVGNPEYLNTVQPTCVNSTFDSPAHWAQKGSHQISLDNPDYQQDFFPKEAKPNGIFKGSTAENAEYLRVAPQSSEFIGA
Epidermal growth factor receptor (Homo sapiens), P00533 [L858R], sequence (P00533 whole entry L858R): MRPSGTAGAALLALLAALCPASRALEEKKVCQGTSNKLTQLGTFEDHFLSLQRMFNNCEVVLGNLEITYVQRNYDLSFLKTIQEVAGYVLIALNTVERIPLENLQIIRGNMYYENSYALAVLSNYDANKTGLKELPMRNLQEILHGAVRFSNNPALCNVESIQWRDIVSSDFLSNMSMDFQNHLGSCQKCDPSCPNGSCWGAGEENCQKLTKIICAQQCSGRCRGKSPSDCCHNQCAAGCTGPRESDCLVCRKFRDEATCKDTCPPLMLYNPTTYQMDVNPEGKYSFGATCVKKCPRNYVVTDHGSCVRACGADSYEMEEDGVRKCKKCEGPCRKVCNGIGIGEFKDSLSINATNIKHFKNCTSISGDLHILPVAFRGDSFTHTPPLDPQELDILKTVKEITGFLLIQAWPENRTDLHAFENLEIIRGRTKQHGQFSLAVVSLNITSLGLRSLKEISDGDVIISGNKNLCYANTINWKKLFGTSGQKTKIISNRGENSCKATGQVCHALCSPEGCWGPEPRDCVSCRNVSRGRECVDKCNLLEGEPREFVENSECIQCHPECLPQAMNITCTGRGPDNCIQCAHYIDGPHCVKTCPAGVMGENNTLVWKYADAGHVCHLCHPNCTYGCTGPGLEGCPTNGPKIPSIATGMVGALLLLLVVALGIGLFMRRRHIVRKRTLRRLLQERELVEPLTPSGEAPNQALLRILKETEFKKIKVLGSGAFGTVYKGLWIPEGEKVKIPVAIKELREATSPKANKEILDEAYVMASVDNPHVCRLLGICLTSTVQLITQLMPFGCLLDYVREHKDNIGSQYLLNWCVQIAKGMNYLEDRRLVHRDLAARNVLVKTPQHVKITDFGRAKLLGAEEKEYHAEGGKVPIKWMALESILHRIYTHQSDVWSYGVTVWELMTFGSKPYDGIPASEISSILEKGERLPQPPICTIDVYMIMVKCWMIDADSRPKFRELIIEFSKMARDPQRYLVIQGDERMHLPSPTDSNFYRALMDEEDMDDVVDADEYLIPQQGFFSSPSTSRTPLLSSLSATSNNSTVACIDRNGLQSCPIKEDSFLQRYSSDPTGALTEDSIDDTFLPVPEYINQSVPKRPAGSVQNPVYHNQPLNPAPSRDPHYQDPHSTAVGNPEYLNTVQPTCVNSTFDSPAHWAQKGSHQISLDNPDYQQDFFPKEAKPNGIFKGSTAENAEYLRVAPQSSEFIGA

SMILES: Nc1cnc(N2CCc3cc(S(=O)(=O)Nc4c(F)cc(Cl)cc4F)cc(N4CCCC4=O)c32)nc1 [TP-020n]
- % of control [1]: 100%

SMILES: CNC(=O)Nc1ccc(-c2nc(N3CC4CCC(C3)O4)c3cnn(C4CCC5(CC4)OCCO5)c3n2)cc1
- % of inhibition [2]: 14%

SMILES: N#Cc1cccc(-c2c[nH]c3ncnc(N4CCOCC4)c23)c1
- % of control [3]: 43%

SMILES: COCC(=O)NC/C=C/c1ccc2ncnc(Nc3ccc(Oc4ccc(C)nc4)c(C)c3)c2c1 [CP-724714]
- % of control [4]: 92%

- % of control ([5]; at 1 µM): 96%
- % of control ([5]; at 5 µM): 96%
- % of control ([6]; at 1 µM): 104%
- % of control ([6]; at 5 µM): 91%
- % of control ([7]; at 1 µM): 96%
- % of control ([7]; at 5 µM): 75%
- % of control ([8]; at 1 µM): 95%
- % of control ([8]; at 5 µM): 83%
- % of control ([9]; at 1 µM): 115%
- % of control ([9]; at 5 µM): 88%
- % of control ([10]; at 1 µM): 91%
- % of control ([10]; at 5 µM): 84%
- % of control ([11]; at 1 µM): 108%
- % of control ([11]; at 5 µM): 101%
- % of control ([12]; at 1 µM): 88%
- % of control ([12]; at 5 µM): 97%
SMILES: C=CC(=O)Nc1cccc(C(=O)Nc2ccc(Nc3cc(-c4[nH]c(SC)nc4C)ccn3)cc2)c1

SMILES: O=C(NOC[C@H](O)CO)c1ccc(F)c(F)c1Nc1ccc(I)cc1F
- % of control [13]: 98%
